Assay: laser scattering particle size analysis of naproxen crystal particles
Assay type: physicochemical
Details: HORIBA LA-910 laser scattering particle size analyzer
Source text: The sizes of the crystal particles of naproxen prepared in Examples 6 and 7 and Comparative Example 2 were observed. Specifically, the degree of dispersion of the particle sizes of a nonsteroidal anti-inflammatory drug (NSAID) agent naproxen ((+)-(S)-2-(6-methoxynaphthalen-2-yl)propanoic acid) was observed by using HORIBA LA-910 LASER SCATTERING PARTICLE SIZE ANALYZER. The observation results are each illustrated in FIGS. 16 to 18.

- average particle diameter / average crystal size of naproxen: 9.5 μm
Structure (SMILES): COc1ccc2cc([C@H](C)C(=O)O)ccc2c1 [Comparative Example 2, (+)-(s)-2-(6-methoxynaphthalen-2-yl)propanoic acid]

— US20150265614A1, “ORAL PREPARATION AND METHOD FOR PRODUCING THE SAME” (CHUNG-ANG UNIVERSITY INDUSTRY-ACADEMY COOPERATION FOUNDATION, priority 2012, published 2015)
